This note sets out measurements from US10617697B2, “Extracts of edible fungi enriched in vitamin D and compostions thereof and their use in the treatment of immune-related disorders” (GAVISH-GALILEE BIO APPLICATIONS LTD, priority 2015, dated 2020).

For this assay, the system named is immune-mediated hepatitis harboring mice. In words: ConA hepatitis in mice, serum liver enzymes after oral pre-treatment. It counts as in vivo, C57BL/6 mice. Conditions: for ALT serum levels: serum 16 hours after ConA. Here is the method: Male C57BL/6 mice (11-12 weeks old) were obtained from Harlan Laboratories (Jerusalem, Israel) and maintained in the Animal Core of the Hadassah-Hebrew University Medical School. Mice were administered standard laboratory chow and water ad libitum and kept in a 12 hour light/dark cycle. Animal experiments were carried out according to the guidelines of the Hebrew University-Hadassah Institutional Committee for Care and Use of Laboratory Animals and with the committee's approval.
Concanavalin A (ConA, MP Biomedicals, USA) was dissolved in 50 mM Tris pH 7, 150 mM NaCl, 4 mM CaCl2 and was injected into the tail vein at a dose of 500 μg/mouse (15 mg/kg) in the first experiment, and 400 μg/mouse in the second experiment. Mice were sacrificed 16 hours following ConA injection. Blood and liver tissue were collected for further analysis
Two consecutive experiments were conducted. In the first study, 4 groups of mice were studied (n=5-6 mice/group). Mice in control group were treated 2 hours before ConA injection with DDW (di distilled water). The first treated group received vitamin D oral supplement (1 IU of vitamin D in saline) twice daily for 3 days prior to Concanavalin A-induced immune liver damage. The second treated group was treated orally with crude freeze-dried biomass derived from Lentinula edodes (LE) edible mushrooms (7.5 mg of mushrooms) at the same timing and frequency, while the third treated group was treated with vitamin D enriched LE (7.5 mg of freeze-dried mushrooms containing 1.125 IU of vitamin D). In a subsequent study, four groups of mice (n=5-7 mice/group) were treated by the same protocol detailed above, but the frequency of the oral treatment was increased from two to three times daily.
Serum was obtained from individual mice after sacrifice. The serum aspartate aminotransferase (AST) and alanine aminotransferase (ALT) levels were determined with an automatic analyzer.

For `C=C1CC[C@H](O)C/C1=C/C=C1\CCC[C@]2(C)[C@@H]([C@H](C)/C=C/[C@H](C)C(C)C)CC[C@@H]12` [vitamin D, ergocalciferol], the “proportion of severe liver injury (defined as ALT>2611 U/L)” value (first experiment, oral twice daily for 3 days before ConA) was determined as 60%. For the same compound, the ALT serum levels was 2802 U/L (first experiment, oral twice daily for 3 days before ConA 500 μg/mouse) and 4040 U/L (second study, oral three times daily for 3 days before ConA 400 μg/mouse). Moreover, the “proportion of severe liver injury (defined as ALT >2000 U/L)” value (second experiment, oral three times daily for 3 days before ConA) was found to be 100%. Also, the “proportion of severe liver injury by AST (defined as AST>2000 U/L)” value (second experiment, oral three times daily for 3 days before ConA, data not shown) was determined as 100%.
